Measurements published in PubChem BioAssay AID651655 (NMMLSC, 2012).
Active and inactive are the calls of the source.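 Rule for the calls: active = viability at the highest tested concentration below 50%; inactive = the rest.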

Tests used:
[1] = viability loss, cell-based, CellTiter-Glo luminescence, cherry picks 01-02, cytotoxicity control for ABCB6 inhibitor project, dose response (AID 651655); conditions: K562 vector control cells viability, CellTiter-Glo, 18 h; at 100 µM (top of the series)
[2] = system: K562 vector control cells viability, CellTiter-Glo, 18 h; experiment: as above

## COC(=O)c1ccc(NC(=O)c2nc(S(=O)(=O)Cc3cccc(C)c3)ncc2Cl)cc1
[1]
  viability: 82.7% (inactive)

## CC(=O)Nc1ccc(NC(=O)c2nc(S(=O)(=O)Cc3cccc(C)c3)ncc2Cl)cc1
[2]
  EC50: 660 nM

## Cc1ccc(CS(=O)(=O)c2ncc(Cl)c(C(=O)Nc3nnc(C(C)C)s3)n2)cc1
[2]
  EC50: 596 nM

## Cc1ccc(NC(=O)c2nc(S(=O)(=O)Cc3ccccc3C)ncc2Cl)cc1C
[2]
  EC50: 758 nM

## CCOc1ccccc1NC(=O)c1nc(S(=O)(=O)Cc2ccccc2)ncc1Cl
[2]
  EC50: 2200 nM

## CCc1ccc(NC(=O)c2nc(S(=O)(=O)Cc3ccccc3)ncc2Cl)cc1
[2]
  EC50: 390 nM

## CCN(CC)S(=O)(=O)c1cccc(-n2c(O)c(C=Nc3ccccc3C(=O)O)c3ccccc3c2=O)c1
[1]
  viability: 79% (inactive)

## CC(=O)Nc1ccc(NC(=O)c2nc(S(=O)(=O)Cc3ccccc3)ncc2Cl)cc1
[2]
  EC50: 911 nM

## CCOC(=O)c1ccc(NC(=O)c2nc(S(=O)(=O)Cc3ccccc3)ncc2Cl)cc1
[2]
  EC50: 1930 nM

## C[N+](C)(C)CC1CCCC(C[N+](C)(C)C)C1=O (stereo not given)
[1]
  viability: 67.5% (inactive)

## Cc1cccc(CS(=O)(=O)c2ncc(Cl)c(C(=O)Nc3ccc(F)cc3)n2)c1
[1]
  viability: 90.2% (inactive)

## CCOc1ccccc1NC(=O)c1nc(S(=O)(=O)Cc2cccc(C)c2)ncc1Cl
[2]
  EC50: 715 nM

## Cc1nnc(NC(=O)c2nc(S(=O)(=O)Cc3ccccc3)ncc2Cl)s1
[2]
  EC50: 2050 nM

## Cc1ccc(CS(=O)(=O)c2ncc(Cl)c(C(=O)Nc3ccc(OC(F)F)cc3)n2)cc1
[2]
  EC50: 741 nM

## CCCc1nnc(NC(=O)c2nc(S(=O)(=O)Cc3cccc(C)c3)ncc2Cl)s1
[1]
  viability: 71.2% (inactive)

## Cc1cccc(CS(=O)(=O)c2ncc(Cl)c(C(=O)Nc3nnc(C(C)C)s3)n2)c1
[2]
  EC50: 627 nM

## Cc1ccccc1CS(=O)(=O)c1ncc(Cl)c(C(=O)Nc2ccc(F)cc2)n1
[1]
  viability: 61.6% (inactive)

## Cc1ccc(NC(=O)c2nc(S(=O)(=O)Cc3ccccc3)ncc2Cl)cc1
[1]
  viability: 80.4% (inactive)

## Cc1cccc(C)c1NC(=O)c1nc(S(=O)(=O)Cc2ccccc2)ncc1Cl
[2]
  EC50: 979 nM

## O=C(Nc1ccc(F)cc1)c1nc(S(=O)(=O)Cc2ccccc2)ncc1Cl
[1]
  viability: 81.6% (inactive)
